Experimental data: patent US7977363B2, “Biphenyl-thiazolo-carboxamides” (Bayer Cropscience AG, priority 2004, dated 2011)

Tested on: Botrytis cinerea
Assay: Botrytis Test (Bean)/Protective
Format: in vivo
Conditions: 48 h, protective, evaluated 2 days after inoculation, read-out: Efficacy in %
Procedure: [table] To produce a suitable preparation of active compound, 1 part by weight of active compound is mixed with the stated amounts of solvent and emulsifier, and the concentrate is diluted with water to the desired concentration. In order to test the protective activity, young plants are sprayed with the active compound preparation at the stated application rate. After the spray coating dries, 2 small pieces of agar that are infested with Botrytis cinerea are placed on each leaf. The inoculated plants are placed in a darkened chamber at 20° C. and 100% relative humidity. The size of the infestation blotches on the leaves is evaluated 2 days after the inoculation. An efficacy of 0% corresponds to that of the control, while an efficacy of 100% means that no infestation is observed.

Compound	pest or weed control at 500 g/ha [%]
Cc1nc(C(F)F)c(C(=O)Nc2ccc(F)cc2-c2ccc(Cl)c(Cl)c2)s1 [drawing 65]	100
Cc1nc(C(F)F)c(C(=O)Nc2c(F)cccc2-c2ccc(Cl)c(Cl)c2)s1 [drawing 66]	100
Cc1nc(C(F)(F)F)c(C(=O)Nc2ccc(F)cc2-c2ccc(Cl)c(Cl)c2)s1 [drawing 67]	99
Cc1nc(C(F)(F)F)c(C(=O)Nc2c(F)cccc2-c2ccc(Cl)c(Cl)c2)s1 [drawing 68]	98
Cc1nc(C(F)F)c(C(=O)Nc2c(F)cccc2-c2ccc(Cl)c(F)c2)s1 [drawing 69]	100
Cc1nc(C(F)(F)F)c(C(=O)Nc2ccc(F)cc2-c2ccc(Cl)c(F)c2)s1 [drawing 70]	100
Cc1nc(C(F)(F)F)c(C(=O)Nc2ccc(F)cc2-c2ccc(Cl)c(C)c2)s1 [drawing 71]	100
Cc1nc(C(F)F)c(C(=O)Nc2ccc(F)cc2-c2ccc(Cl)c(C)c2)s1 [drawing 72]	100
Cc1nc(C(F)F)c(C(=O)Nc2ccc(F)cc2-c2cccc(C)c2F)s1 [drawing 73]	98

Tested on: apple scab fungus Venturia inaequalis
Assay: Venturia Test (Apple)/Protective
Format: in vivo
Conditions: 240 h, protective, evaluated 10 days after inoculation, read-out: Efficacy in %
Procedure: (§1) [table] To produce a suitable preparation of active compound, 1 part by weight of active compound is mixed with the stated amounts of solvent and emulsifier, and the concentrate is diluted with water to the desired concentration. In order to test the protective activity, young plants are sprayed with the active compound preparation at the stated application rate. After the spray coating dries, the plants are inoculated with an aqueous conidial suspension of the apple scab fungus Venturia inaequalis and then remain in an incubation cabinet for 1 day at approx. 20° C. and 100% relative humidity. The plants are then placed in the greenhouse at approx. 21° C. and at a relative humidity of approx. 90%. The results are evaluated 10 days after the inoculation. An efficacy of 0% corresponds to that of the control, while an efficacy of 100% means that no infestation is observed.

Compound	pest or weed control at 100 g/ha [%]
Cc1nc(C(F)F)c(C(=O)Nc2ccc(F)cc2-c2ccc(Cl)c(Cl)c2)s1 [drawing 56]	100
Cc1nc(C(F)F)c(C(=O)Nc2c(F)cccc2-c2ccc(Cl)c(Cl)c2)s1 [drawing 57]	100
Cc1nc(C(F)(F)F)c(C(=O)Nc2ccc(F)cc2-c2ccc(Cl)c(Cl)c2)s1 [drawing 58]	100
Cc1nc(C(F)(F)F)c(C(=O)Nc2c(F)cccc2-c2ccc(Cl)c(Cl)c2)s1 [drawing 59]	100
Cc1nc(C(F)F)c(C(=O)Nc2c(F)cccc2-c2ccc(Cl)c(F)c2)s1 [drawing 60]	100
Cc1nc(C(F)(F)F)c(C(=O)Nc2ccc(F)cc2-c2ccc(Cl)c(F)c2)s1 [drawing 61]	100
Cc1nc(C(F)(F)F)c(C(=O)Nc2ccc(F)cc2-c2ccc(Cl)c(C)c2)s1 [drawing 62]	100
Cc1nc(C(F)F)c(C(=O)Nc2ccc(F)cc2-c2ccc(Cl)c(C)c2)s1 [drawing 63]	100
Cc1nc(C(F)F)c(C(=O)Nc2ccc(F)cc2-c2cccc(C)c2F)s1 [drawing 64]	98

Tested on: not listed separately
Assay: Log P determination by HPLC on reversed-phase column (EEC Directive 79/831, Annex V.A8)
Format: physicochemical
Conditions: reversed-phase HPLC column (C18), pH 2.3; read-out: log P (pH 2.3)
Procedure: The determination of the Log P values occurred according to EEC Directive 79/831, Annex V.A8 using HPLC (High Performance Liquid Chromatography) on a reversed-phase column (C 18). Temperature: 43° C. Eluents for determination in the acidic range (pH 2.3): 0.1% aqueous phosphoric acid, acetonitrile; linear gradient of 10% acetonitrile to 90% acetonitrile. Calibration took place using unbranched alkane-2-ones (with 3 to 16 carbon atoms) with known Log P values (the Log P values were determined on the basis of the retention times by way of linear interpolation between two consecutive alkanones).

chromatographic logP	Compound
3.67	Cc1nc(C(F)(F)F)c(C(=O)Nc2ccc(F)cc2-c2ccc(Cl)c(F)c2)s1 [Compound 2.18, N-(4′-chloro-3′,5-difluorobiphenyl-2-yl)-2-methyl-4-(trifluoromethyl)-1,3-thiazole-5-carboxamide]
3.18	Nc1ccc(F)cc1-c1ccc(Cl)c(F)c1 [III-1, 4′-chloro-3′,5-difluorobiphenyl-2-amine]

Same assay, conditions: reversed-phase HPLC column (C18); HPLC, C18 reversed phase, 43° C., acidic range (pH 2.3); read-out: Log P

chromatographic logP	Compound
3.93	Cc1nc(C(F)(F)F)c(C(=O)Nc2ccc(F)cc2-c2ccc(Cl)c(Cl)c2)s1 [Compound 2.11, N-(3′,4′-dichloro-5-fluorobiphenyl-2-yl)-2-methyl-4-(trifluoromethyl)-1,3-thiazole-5-carboxamide]
3.63	Cc1nc(C(F)F)c(C(=O)Nc2ccc(F)cc2-c2ccc(Cl)c(Cl)c2)s1 [Compound 2.12]
3.43	Cc1nc(C(F)F)c(C(=O)Nc2c(F)cccc2-c2ccc(Cl)c(Cl)c2)s1 [Compound 2.13]
3.68	Cc1nc(C(F)(F)F)c(C(=O)Nc2c(F)cccc2-c2ccc(Cl)c(Cl)c2)s1 [Compound 2.14]
3.16	Cc1nc(C(F)F)c(C(=O)Nc2c(F)cccc2-c2ccc(Cl)c(F)c2)s1 [Compound 2.16]
3.36	Cc1nc(C(F)F)c(C(=O)Nc2ccc(F)cc2-c2ccc(Cl)c(F)c2)s1 [Compound 2.17]
3.99	Cc1nc(C(F)(F)F)c(C(=O)Nc2ccc(F)cc2-c2ccc(Cl)c(C)c2)s1 [Compound 2.20]
3.68	Cc1nc(C(F)F)c(C(=O)Nc2ccc(F)cc2-c2ccc(Cl)c(C)c2)s1 [Compound 2.21]

Tested on: Pyrenophora teres
Assay: Pyrenophora teres Test (Barley)/Protective
Format: in vivo
Conditions: protective, 500 g/ha, evaluated 7 days after inoculation
Procedure: [table] To produce a suitable preparation of active compound, 1 part by weight of active compound is mixed with the stated amounts of solvent and emulsifier, and the concentrate is diluted with water to the desired concentration. In order to test the protective activity, young plants are sprayed with the active compound preparation at the stated application rate. After the spray coating dries, the plants are sprayed with a conidial suspension of Pyrenophora teres. The plants remain in an incubation cabinet for 48 hours at 20° C. and 100% relative humidity. The plants are then placed in a greenhouse at a temperature of approx. 20° C. and a relative humidity of 80%. The results are evaluated 7 days after the inoculation. An efficacy of 0% corresponds to that of the control, while an efficacy of 100% means that no infestation is observed.

Compound	Efficacy in % [%]
Cc1nc(C(F)F)c(C(=O)Nc2ccc(F)cc2-c2ccc(Cl)c(Cl)c2)s1 [drawing 74]	100
Cc1nc(C(F)F)c(C(=O)Nc2c(F)cccc2-c2ccc(Cl)c(F)c2)s1 [drawing 75]	100
Cc1nc(C(F)(F)F)c(C(=O)Nc2ccc(F)cc2-c2ccc(Cl)c(F)c2)s1 [drawing 76]	100
Cc1nc(C(F)F)c(C(=O)Nc2ccc(F)cc2-c2ccc(Cl)c(F)c2)s1 [drawing 77]	100
Cc1nc(C(F)F)c(C(=O)Nc2ccc(F)cc2-c2ccc(Cl)c(C)c2)s1 [drawing 78]	100
Cc1nc(C(F)F)c(C(=O)Nc2ccc(F)cc2-c2cccc(C)c2F)s1 [drawing 79]	100

Tested on: Podosphaera leucotricha
Assay: Podosphaera Test (Apple)/Protective
Format: in vivo
Conditions: 240 h, protective, evaluated 10 days after inoculation, read-out: Efficacy in %
Procedure: as §1, with “spore” for “conidial”, “Podosphaera leucotricha.” for “the apple scab fungus Venturia inaequalis and then remain in an incubation cabinet for 1 day at approx. 20° C. and 100% relative humidity.”, “23°” for “21°”, “70%.” for “90%.”

Compound	pest or weed control at 100 g/ha [%]
Cc1nc(C(F)F)c(C(=O)Nc2ccc(F)cc2-c2ccc(Cl)c(Cl)c2)s1 [drawing 47]	100
Cc1nc(C(F)F)c(C(=O)Nc2c(F)cccc2-c2ccc(Cl)c(Cl)c2)s1 [drawing 48]	100
Cc1nc(C(F)(F)F)c(C(=O)Nc2ccc(F)cc2-c2ccc(Cl)c(Cl)c2)s1 [drawing 49]	100
Cc1nc(C(F)(F)F)c(C(=O)Nc2c(F)cccc2-c2ccc(Cl)c(Cl)c2)s1 [drawing 50]	100
Cc1nc(C(F)F)c(C(=O)Nc2c(F)cccc2-c2ccc(Cl)c(F)c2)s1 [drawing 51]	100
Cc1nc(C(F)(F)F)c(C(=O)Nc2ccc(F)cc2-c2ccc(Cl)c(F)c2)s1 [drawing 52]	100
Cc1nc(C(F)(F)F)c(C(=O)Nc2ccc(F)cc2-c2ccc(Cl)c(C)c2)s1 [drawing 53]	100
Cc1nc(C(F)F)c(C(=O)Nc2ccc(F)cc2-c2ccc(Cl)c(C)c2)s1 [drawing 54]	100
Cc1nc(C(F)F)c(C(=O)Nc2ccc(F)cc2-c2cccc(C)c2F)s1 [drawing 55]	94

Tested on: Alternaria solani
Assay: Alternaria Test (Tomato)/Protective
Format: in vivo
Conditions: protective, 750 g/ha, evaluated 7 days after inoculation
Procedure: [table] To produce a suitable preparation of active compound, 1 part by weight of active compound is mixed with the stated amounts of solvent and emulsifier, and the concentrate is diluted with water to the desired concentration. In order to test the protective activity, young tomato plants are sprayed with the active compound preparation at the stated application rate. One day after treatment, the plants are inoculated with a spore suspension of Alternaria solani and then remain for 24 hours at 100% relative humidity and 20° C. The plants are then placed into in environment of 96% relative humidity at a temperature of 20° C. The results are evaluated 7 days after the inoculation. An efficacy of 0% corresponds to that of the control, while an efficacy of 100% means that no infestation is observed.

Compound	Efficacy in % [%]
Cc1nc(C(F)F)c(C(=O)Nc2c(F)cccc2-c2ccc(Cl)c(F)c2)s1 [drawing 80]	100
Cc1nc(C(F)(F)F)c(C(=O)Nc2ccc(F)cc2-c2ccc(Cl)c(F)c2)s1 [drawing 81]	100
Cc1nc(C(F)F)c(C(=O)Nc2ccc(F)cc2-c2ccc(Cl)c(F)c2)s1 [drawing 82]	98
